The test system of experiment [1] is CDK8/19-mediated NFκB-driven transcription. As to the kind of experiment: NFκB-dependent luciferase reporter assay in parental 293 reporter cells. It counts as cell-based, human. Particulars: for Inhibition of NFκB reporter activity / inhibition at 1 µM: 1 uM. (Reporter assays use an easily measured gene product as a stand-in for the process of interest.)
Experiment [2] relates to MYC. As to the kind of experiment: QPCR gene expression in TNFα-treated HEK293 cells. It counts as cell-based, human. Conditions: 1 μM, TNFα-treated HEK293 cells, QPCR; for inhibition at 1 µM: Homo sapiens, read-out: Inhibition at 1 μM (% Ctrl) MYC. The source says:
(§1) Two types of cell-based assays for CDK8/19 inhibition were used to test the efficacy of quinoline quinolone compounds described herein (FIG. 3A). The first cell-based assay, which measures the effects of CDK8/19 inhibitors on RNA levels of CDK8/19-regulated genes by quantitative reverse transcription-PCR (QPCR), is based on the ability of CDK8/19 inhibitors to suppress the induction of NFκB-inducible genes by TNFα and to inhibit basal expression of MYC in human embryonic kidney (HEK) 293 cells, as previously described. In this assay, 293 cells growing in DMEM (High-glucose) media supplemented with 10% FBS are pre-treated with the tested inhibitors or DMSO control for 1 hour and then treated with 10 ng/mL TNFα (an activator of NFκB) for 2 hours (in the presence or absence of the tested inhibitors), followed by RNA extraction and QPCR analysis of RNA expression of specific genes conducted as described (Chen et al., ibid), using housekeeping genes RPL13A and GAPDH as normalization standards. […] All the quinoline derivatives inhibited the expression of all three genes.

Experiment [3] has as its system CXCL1. As to the kind of experiment: QPCR gene expression in TNFα-treated HEK293 cells. The format is cell-based, human. Conditions: 1 μM, TNFα-treated HEK293 cells, QPCR; for inhibition at 1 µM: Homo sapiens, read-out: Inhibition at 1 μM (% Ctrl) CXCL1.
Source text: as §1

The test system of experiment [4] is IL8. As to the kind of experiment: QPCR gene expression in TNFα-treated HEK293 cells. It counts as cell-based, human. Particulars: 1 μM, TNFα-treated HEK293 cells, QPCR; for inhibition at 1 µM: Homo sapiens, read-out: Inhibition at 1 μM (% Ctrl) IL8.
Source text: as §1

Experiment [5] deals with HL60-Luc cells. As to the kind of experiment: HL60-Luc proliferation assay (BLI). It counts as cell-based. Particulars: HL-60-Luc, 168 h; 7 days. The protocol: The anti-leukemic activity was also evaluated with a HL60 assay. The HL60 assay was performed by a similar procedure as MV4-11 assay. A derivative of the HL-60 leukemia cell line was generated to express Luciferase and ZsGreen by lentiviral infection with pHIV-Luc-ZsGreen, to enable leukemia growth analysis by bioluminescence imaging (BLI). The initial Luciferase-ZsGreen transduced cell population was sorted for ZsGreen positivity with fluorescence activated cell sorting and individual clones were tested for luciferase expression. […] The HL-60 assay was performed in 96-well plates by treating the HL60-Luc cells with testing compounds at different concentrations for 7 days, followed by BLI to quantify the effects of test articles on cell proliferation.

Experiment [6] relates to MV4-11 cells. As to the kind of experiment: MV4-11-Luc proliferation assay (BLI). Conditions: Homo sapiens, MV4-11, 168 h; 7 days. It counts as cell-based. The protocol:
The anti-leukemic activity was evaluated with a MV4-11 assay. The population of MV4-11 cells, which depend on CDK8/19 for their proliferation, was made to express Luciferase and ZsGreen by lenvtiral infection with pHIV-Luc-ZsGreen, to enable leukemia growth analysis by bioluminescence imaging (BLI). The initial Luciferase-ZsGreen transduced cell population was sorted for ZsGreen positivity with fluorescence activated cell sorting. The MV4-11 assay was performed in 96-well plates by treating the MV4-11-Luc cells with testing compounds at different concentrations for 7 days, followed by BLI to quantify the effects of test articles on cell proliferation.

The target of experiment [7] is CDK8 in complex with Cyclin C (Homo sapiens (Human), UniProt P49336). As to the kind of experiment: LanthaScreen Eu Kinase Binding Assay. The source says: The binding of the tracer to the kinase is detected using a europium-labeled anti-tag antibody, which binds to the kinase of interest. […] The binding of an inhibitor to the kinase competes for binding with the tracer, resulting in a loss of FRET.

Where [8] appears, read: Homo sapiens, 293/NFkB-luc, read-out: IC50 (293-NFKB-Luc).

SMILES strings stand for the structures. Like-named read-outs stand apart in the source and are kept apart here. Where only a bound is given, the exact number is not on record here.

Chain of CDK8 in complex with Cyclin C (P49336 whole entry): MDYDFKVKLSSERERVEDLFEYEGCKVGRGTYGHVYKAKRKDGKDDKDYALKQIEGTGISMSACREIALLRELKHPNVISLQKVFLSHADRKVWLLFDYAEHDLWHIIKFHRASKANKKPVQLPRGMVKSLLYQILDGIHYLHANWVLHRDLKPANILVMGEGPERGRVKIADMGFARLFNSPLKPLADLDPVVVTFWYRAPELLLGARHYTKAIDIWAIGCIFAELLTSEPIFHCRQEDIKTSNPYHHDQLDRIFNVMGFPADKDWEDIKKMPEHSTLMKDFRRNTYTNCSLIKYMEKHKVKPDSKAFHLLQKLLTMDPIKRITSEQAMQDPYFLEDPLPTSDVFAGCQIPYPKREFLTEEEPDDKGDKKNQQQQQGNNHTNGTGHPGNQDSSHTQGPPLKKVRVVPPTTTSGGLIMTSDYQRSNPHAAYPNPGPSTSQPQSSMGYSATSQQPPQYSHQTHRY
Chain of CDK8 in complex with Cyclin C (P24863 whole entry partner): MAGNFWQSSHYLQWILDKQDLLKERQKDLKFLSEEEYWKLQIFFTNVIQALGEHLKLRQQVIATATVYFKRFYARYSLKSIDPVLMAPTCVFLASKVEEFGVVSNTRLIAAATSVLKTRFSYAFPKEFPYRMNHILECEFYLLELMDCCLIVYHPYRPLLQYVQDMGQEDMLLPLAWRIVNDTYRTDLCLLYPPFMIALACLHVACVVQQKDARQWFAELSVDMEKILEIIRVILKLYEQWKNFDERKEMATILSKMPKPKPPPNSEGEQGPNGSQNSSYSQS

One may read the IC50 as the point on the concentration scale where inhibition reaches its midpoint. For orientation: Inhibition means the relative decrease from the control value, in per cent. As to `N#Cc1ccc2ncnc(NCCc3ccccc3)c2c1` [Senexin A, reference compound], the IC50 in experiment [1] (parental 293-derived reporter cell line, read-out: HEK293 NFKB CDK8 Reporter IC50) amounted to 0.355 µM. Besides, the “Inhibition at 1 μM (% Ctrl) MYC” value in experiment [2] worked out at 24.94%. For the same compound, the “Inhibition at 1 μM (% Ctrl) CXCL1” value in experiment [3] is 34.19%. In addition, the “Inhibition at 1 μM (% Ctrl) IL8” value in experiment [4] turned out to be 29.53%.
For orientation: inhibition means the percentage by which the read-out fell short of the control. `CCCNc1ccnc2ccc(C#N)cc12` [compound 6134, 4-(propylamino)quinoline-6-carbonitrile]: the results for the inhibition at 1 µM in experiment [2], in experiment [3] and in experiment [4] were 57.2%, 72.2% and 62.1%, respectively.
As for `CC(C)Nc1ccnc2ccc(C#N)cc12` [compound 6136, 4-(isopropylamino)quinoline-6-carbonitrile], the inhibition at 1 µM in experiment [2] stood at 65.6%; in experiment [3] it was 80.3%; in experiment [4], 74.1%.
On to `Clc1ccc2nccc(NCCc3ccccc3)c2c1` [compound 6145, 6-chloro-N-phenethylquinolin-4-amine], for which the “Inhibition of NFκB reporter activity” value in experiment [1] is listed as “N.A. (8% inh. at 1 uM)”. Further, the inhibition at 1 µM in experiment [1] (Homo sapiens) is under 15%.
For `Brc1ccc2nccc(NCCc3ccccc3)c2c1` [compound 6146, 6-bromo-N-phenethylquinolin-4-amine], in that order: “N.A. (10% inh. at 1 uM)” and under 15%.
For `Ic1ccc2nccc(NCCc3ccccc3)c2c1` [compound 6147, 6-iodo-N-phenethylquinolin-4-amine], in experiment [1] (Homo sapiens), the inhibition at 1 µM is under 15%.
In the case of `FC(F)(F)c1ccc2nccc(NCCc3ccccc3)c2c1` [compound 6150, N-phenethyl-6-(trifluoromethyl)quinolin-4-amine], the “Inhibition of NFκB reporter activity” value in experiment [1] is “N.A. (10% inh. at 1 uM)”. The inhibition at 1 µM in experiment [1] (Homo sapiens) was under 15%.
On to `Nc1ccc2nccc(NCCc3ccccc3)c2c1` [compound 6164, N4-phenethylquinoline-4,6-diamine], for which the inhibition at 5 µM in experiment [1] (Homo sapiens, 5 uM) is 5%.
`N#Cc1ccc2nccc(NCCc3ccc4cc(C(=O)N5CCN(CCCO)CC5)ccc4c3)c2c1` [compound 6216, 4-((2-(6-(4-(3-hydroxypropyl)piperazine-1-carbonyl)naphthalen-2-yl)ethyl)amino)quinoline-6-carbonitrile]: in experiment [5], the IC50 came out at 0.161 µM.
Compound `CN(C)C(=O)c1ccc2cc(CCNc3ccnc4ccc(C#N)cc34)ccc2c1` [compound 6219, 6-(2-((6-cyanoquinolin-4-yl)amino)ethyl)-N,N-dimethyl-2-naphthamide] showed an IC50 in experiment [5] of 0.077 µM.
The same measure, in the same setting: the result for `N#Cc1ccc2nccc(NCCc3ccc4cc(C(=O)N5CCNCC5)ccc4c3)c2c1` [compound 6283, 4-((2-(6-(piperazine-1-carbonyl)naphthalen-2-yl)ethyl)amino)quinoline-6-carbonitrile] reads 0.756 µM.
As to `N#Cc1ccc2nccc(NCCc3ccc4cc(C(=O)N5CCSCC5)ccc4c3)c2c1` [compound 6294, 4-[2-[6-(thiomorpholine-4-carbonyl)-2-naphthyl]ethylamino]quinoline-6-carbonitrile], the IC50 in experiment [1] (setting [8]) came to 0.107 µM; in experiment [5], 0.0734 µM; in experiment [6] it was 0.092 µM; in experiment [7], 0.0097 µM.
For `N#Cc1ccc2nccc(NCCc3ccc4cc(C(=O)N5CC[S+]([O-])CC5)ccc4c3)c2c1` [compound 6295, 4-[2-[6-(1-oxo-1,4-thiazinane-4-carbonyl)-2-naphthyl]ethylamino]quinoline-6-carbonitrile], in that order: 0.16 µM, 0.163 µM, 0.218 µM and 0.0058 µM.
On to `N#Cc1ccc2nccc(NCCc3ccc4cc(C(=O)N5CCS(=N)(=O)CC5)ccc4c3)c2c1` [compound 6299, 4-[2-[6-(1-imino-1-oxo-1,4-thiazinane-4-carbonyl)-2-naphthyl]ethylamino]quinoline-6-carbonitrile], for which the IC50 in experiment [1] (setting [8]) worked out at 0.213 µM; in experiment [5], 0.26 µM; in experiment [6], 0.275 µM; in experiment [7] it was 0.0046 µM.
As for `CC(=O)N1CCN(C(=O)c2ccc3cc(CCNc4ccnc5ccc(C#N)cc45)ccc3c2)CC1` [compound 6326, 4-[2-[6-(4-acetylpiperazine-1-carbonyl)-2-naphthyl]ethylamino]quinoline-6-carbonitrile], the IC50 in experiment [1] (setting [8]) is 0.178 µM; in experiment [5], 0.162 µM; in experiment [6], 0.295 µM; in experiment [7], 0.0117 µM.
For `CN(CCCNC(=O)OC(C)(C)C)C(=O)c1ccc2cc(CCNc3ccnc4ccc(C#N)cc34)ccc2c1` [compound 6336, tert-butyl-N-[3-[[6-[2-[(6-cyano-4-quinolyl)amino]ethyl]naphthalene-2-carbonyl]-methyl-amino]propyl]carbamate], in that order: 0.208 µM, 0.154 µM, 0.181 µM and 0.0093 µM.
Turning to `CN(CCCN)C(=O)c1ccc2cc(CCNc3ccnc4ccc(C#N)cc34)ccc2c1` [compound 6337, N-(3-aminopropyl)-6-[2-[(6-cyano-4-quinolyl)amino]ethyl]-N-methyl-naphthalene-2-carboxamide], the IC50 was 0.113 µM in experiment [1] (setting [8]), 0.255 µM in experiment [5] and 0.0092 µM in experiment [7].
Consider `CC(C)(C)OC(=O)NCCCN1CCN(C(=O)c2ccc3cc(CCNc4ccnc5ccc(C#N)cc45)ccc3c2)CC1` [compound 6345, tert-butyl-(3-(4-(6-(2-((6-cyanoquinolin-4-yl)amino)ethyl)-2-naphthoyl)piperazin-1-yl)propyl)carbamate], for which the IC50 in experiment [1] (setting [8]) amounted to 0.085 µM; in experiment [5], 0.061 µM; in experiment [6], 0.122 µM; in experiment [7], 0.0081 µM.
Take `N#Cc1ccc2nccc(NCCc3ccc4cc(C(=O)N5CCN(CCCN)CC5)ccc4c3)c2c1` [compound 6346, 4-[2-[6-[4-(3-aminopropyl)piperazine-1-carbonyl]-2-naphthyl]ethylamino]quinoline-6-carbonitrile]: the figures for the IC50 in experiment [1] (setting [8]), in experiment [5] and in experiment [7] were 0.837 µM, 0.308 µM and 0.0065 µM, respectively.
For `CC(C)(C)OC(=O)N1CCN(C(=O)c2ccc3cc(CCNc4ccnc5ccc(C#N)cc45)ccc3c2)CC1` [compound 6440, tert-butyl 4-[6-[2-[(6-cyano-4-quinolyl)amino]ethyl]naphthalene-2-carbonyl]piperazine-1-carboxylate], the IC50 in experiment [1] (setting [8]) came out at 0.137 µM; in experiment [5] it was 0.067 µM; in experiment [6] it was 0.146 µM; in experiment [7], 0.0189 µM.

Values taken from patent publication US12281080B2, “Quinoline-based compounds and methods of inhibiting CDK8/19” (University of South Carolina, priority 2018, dated 2025).
